The values that follow come from paper PMC6052247, “Structurally Diverse Polyketides From the Mangrove-Derived Fungus Diaporthe sp. SCSIO 41011 With Their Anti-influenza A Virus Activities” (Frontiers in Chemistry, 2018).

The assay deals with A/Puerto Rico/8/34 H274Y (H1N1). The assay is classed as cell-based, Influenza A virus.

`CCCCCCCc1cc(=O)c2c(CC(=O)OCC)cc(O)cc2o1` [Compound 15, pestalotiopsone B]: 2560 ± 320 nM corresponded to half-maximal inhibition (IC50).
Under 5-chloroisorotiorin stands 2520 ± 210 nM; under `CCCCCc1cc(=O)c2c(CC(=O)OC)cc(O)cc2o1` [Compound 14, pestalotiopsone F], 21800 ± 7960 nM.

By IC50 is commonly meant the concentration at which inhibition is half-maximal.
